Measurements as given in ChEMBL document CHEMBL5233225, “Para-sulfonatocalix[n]arene-based biomaterials: Recent progress in pharmaceutical and biological applications” (Eur J Med Chem, 2020).

Tests used:
[1] = Haemolytic activity in human RBC measured after 30 mins by spectrophotometric analysis; assay type: toxicity, cell-based, Erythrocyte; details: red blood cells (RBC), read-out: Activity
K562 = experiment: Photodynamic antitumor activity against human K562 cells assessed as mortality rate preincubated for 24 hrs followed by irradiation by UV-VIS spectrophotometer; assay type: functional

SMILES	hemolysis at 0.5 h [1]	Activity (K562)
O=S(=O)(O)c1cc2c(O)c(c1)Cc1cc(S(=O)(=O)O)cc(c1O)Cc1cc(S(=O)(=O)O)cc(c1O)Cc1cc(S(=O)(=O)O)cc(c1O)Cc1cc(S(=O)(=O)O)cc(c1O)Cc1cc(S(=O)(=O)O)cc(c1O)Cc1cc(S(=O)(=O)O)cc(c1O)Cc1cc(S(=O)(=O)O)cc(c1O)C2	29%	30%
O=S(=O)(O)c1cc2c(O)c(c1)Cc1cc(S(=O)(=O)O)cc(c1O)Cc1cc(S(=O)(=O)O)cc(c1O)Cc1cc(S(=O)(=O)O)cc(c1O)Cc1cc(S(=O)(=O)O)cc(c1O)Cc1cc(S(=O)(=O)O)cc(c1O)C2	12%	60%
